Measured values published in EP0428132A1, “Pradimicin derivatives” (Bristol-Myers Squibb Company, priority 1989, dated 1991).
Converted amounts (≈) assume the structure as drawn. Where a name gives a salt, the structure may show the parent alone. Marks after values point to notes of the source that are not given here.

Tests used:
Candida albicans A25578 = test: In vitro antifungal activity, serial agar dilution method (Table 1a); assay type: cell-based; settings: A25578, YM agar (pH 7.0, Difco), 30°C for 2 days (yeast) or 4 days (filamentous fungi), read-out: MICs, Candida albicans A25578
Protocol: (§1) The inoculum size was adjusted to 10⁶ cells/ml, and a volume of approximately 0.003 ml of fungal suspension was applied to the surface of the antibiotic containing agar plates with a multiinoculator. After incubation, the lowest concentration of antibiotic causing virtually complete inhibition of fungal growth was determined as the minimum inhibitory concentration (MIC).

Candida albicans A9540 [1] = test: as above; assay type: cell-based; settings: A9540, YM agar (pH 7.0, Difco), 30°C for 2 days (yeast) or 4 days (filamentous fungi), read-out: MICs, Candida albicans A9540
Protocol: as §1

[2] = test system: Candida paratropicalis A25825; test: as above; assay type: cell-based; settings: YM agar (pH 7.0, Difco); 30°C for 2 days (yeast) or 4 days (filamentous fungi); read-out: MICs, Candida paratropicalis A25825
Protocol: as §1

[3] = test system: Candida pseudotropicalis A25802; test: as above; assay type: cell-based; settings: Kluyveromyces marxianus, YM agar (pH 7.0, Difco), 30°C for 2 days (yeast) or 4 days (filamentous fungi), read-out: MICs, Candida pseudotropicalis A25802
Protocol: as §1

[4] = test system: Candida tropicalis A25809; test: as above; assay type: cell-based; settings: YM agar (pH 7.0, Difco), 30°C for 2 days (yeast) or 4 days (filamentous fungi), read-out: MICs, Candida tropicalis A25809
Protocol: as §1

[5] = test system: Candida tropicalis A25812; test: as above; assay type: cell-based; settings: A25812, YM agar (pH 7.0, Difco), 30°C for 2 days (yeast) or 4 days (filamentous fungi), read-out: MICs, Candida tropicalis A25812
Protocol: as §1

[6] = test system: Cryptococcus neoformans A15053; test: as above; assay type: cell-based; settings: A15053, YM agar (pH 7.0, Difco), 30°C for 2 days (yeast) or 4 days (filamentous fungi), read-out: MICs, Cryptococcus neoformans A15053
Protocol: as §1

[7] = test system: Microsporum canis WW10218; test: as above; assay type: cell-based; settings: WW10218, pH 7, read-out: MICs, Microsporum canis WW10218
Protocol: as §1

[8] = test system: Microsporum gypseum WW1107; test: as above; assay type: cell-based; settings: Nannizzia gypsea, YM agar (pH 7.0, Difco), 30°C for 2 days (yeast) or 4 days (filamentous fungi), read-out: MICs, Microsporum gypseum WW1107
Protocol: as §1

[9] = test system: Saccharomyces cerevisiae A25803; test: as above; assay type: cell-based; settings: YM agar (pH 7.0, Difco), 30°C for 2 days (yeast) or 4 days (filamentous fungi), read-out: MICs, Saccharomyces cerevisiae A25803
Protocol: as §1

[10] = test system: Trichophyton mentagrophytes A26771; test: as above; assay type: cell-based; settings: A26771, YM agar (pH 7.0, Difco), 30°C for 2 days (yeast) or 4 days (filamentous fungi), read-out: MICs, Trichophyton mentagrophytes A26771
Protocol: as §1

[11] = test system: Trichophyton rubrum A26761; test: as above; assay type: cell-based; settings: A26761, pH 7, read-out: MICs, Trichophyton rubrum A26761
Protocol: as §1

Candida albicans A9540 [12] = test: Intravenous Candida albicans infection mouse model, Table 2 part B; assay type: in vivo, mice
Protocol: Several compounds were also evaluated in an intravenous Candida albicans […] infection mouse model. The test organism was suspended in saline approximately 10 times the median lethal dose of the fungus (10⁶ cells/mouse) were used to infect intravenously male ICR mice weighing 20 to 24 g. Groups of five mice at each dose level were given the test compounds intravenously or intramuscularly. The 50% protective dose (PD₅₀) was calculated from survival rates recorded 20 or 21 days after the fungal challenge. […]

[13] = Water solubility, protocol I (PBS, HPLC); assay type: physicochemical; settings: Method I: PBS without CaCl₂ and MgCl₂.6H₂O
Protocol: The supernatant (2 µL) was analyzed by HPLC using the conditions specified for each compound in the Experimental Section. […] When not soluble, an additional amount of PBS (x µL) was added, sonicated, and centrifuged. When visibly soluble, the solution (2 µL) was injected to HPLC and the peak area was used for the known concentration of the sample.

M. gypseum A26835 = test: In vitro antifungal activity, serial agar dilution method (Table 1a, footnote strain 4); assay type: cell-based, Microsporum gypseum; settings: Nannizzia gypsea, A26835; strain per footnote **4; YM agar (pH 7.0, Difco); 30°C for 2 days (yeast) or 4 days (filamentous fungi); read-out: MICs, M. gypseum A26835
Protocol: as §1

M. canis A26834 = test: In vitro antifungal activity, serial agar dilution method (Table 1a, footnote strain 5); assay type: cell-based; settings: Microsporum canis, A26834, pH 7, read-out: MICs, M. canis A26834
Protocol: as §1

M. gypseum A22810 = test: In vitro antifungal activity, serial agar dilution method (Table 1a, footnote strain 1); assay type: cell-based, Microsporum gypseum; settings: Nannizzia gypsea, strain per footnote **1, YM agar (pH 7.0, Difco), 30°C for 2 days (yeast) or 4 days (filamentous fungi), read-out: MICs, M. gypseum A22810
Protocol: as §1

T. rubrum A24195 = test: In vitro antifungal activity, serial agar dilution method (Table 1a, footnote strain 2); assay type: cell-based; settings: Trichophyton rubrum, A24195, pH 7, read-out: MICs, T. rubrum A24195
Protocol: as §1

T. mentagrophytes A22838 = test: In vitro antifungal activity, serial agar dilution method (Table 1a, footnote strain 3); assay type: cell-based; settings: Trichophyton mentagrophytes, strain per footnote **3, YM agar (pH 7.0, Difco), 30°C for 2 days (yeast) or 4 days (filamentous fungi), read-out: MICs, T. mentagrophytes A22838
Protocol: as §1

[14] = Part B: route IV, at 1 and 3.5 hrs after infection and twice on the following day, 21 days after fungal challenge, method of Spearman-Karber, male ICR mice

Row | SMILES | MIC (Candida albicans A25578) [mg/L] | MIC (Candida albicans A9540 [1]) [mg/L] | MIC [2] [mg/L] | MIC [3] [mg/L] | MIC [4] [mg/L] | MIC [5] [mg/L] | MIC [6] [mg/L] | MIC [7] [mg/L] | MIC [8] [mg/L] | MIC [9] [mg/L] | MIC [10] [mg/L] | MIC [11] [mg/L] | PD₅₀ (Candida albicans A9540 [12]; [14]) | solubility [13] [mg/mL] | also measured
1 | CN[C@@H]1[C@H](O)[C@@H](O)[C@H](O[C@H]2c3cc(C)c(C(=O)N[C@H](C)C(=O)O)c(O)c3-c3c(cc4c(c3O)C(=O)c3cc(OC)cc(O)c3C4=O)[C@@H]2O)O[C@@H]1C [Pradimicin B, reference compound] | 1.6 (≈ 2.26 µM) | 3.2 (≈ 4.52 µM) | 3.2 (≈ 4.52 µM) | 0.8 (≈ 1.13 µM) | 0.8 (≈ 1.13 µM) | 3.2 (≈ 4.52 µM) | 0.8 (≈ 1.13 µM) | 3.2 (≈ 4.52 µM) | 12.5 (≈ 17.6 µM) | 0.8 (≈ 1.13 µM) | 3.2 (≈ 4.52 µM) | 3.2 (≈ 4.52 µM) | 32 mg/kg | 0.07 (≈ 98.8 µM) | PD₅₀ (Candida albicans A9540 [12]; Part B: route IM, at 1 and 3.5 hrs after infection and twice on the following day, 21 days after fungal challenge, method of Spearman-Karber, male ICR mice): >50 mg/kg
2 | COc1cc(O)c2c(c1)C(=O)c1c(cc3c(c1O)-c1c(cc(C)c(C(=O)N[C@H](C)C(=O)O)c1O)[C@H](O[C@@H]1O[C@H](C)[C@H](N(C)Cc4ccccc4)[C@H](O[C@@H]4OC[C@@H](O)[C@H](O)[C@H]4O)[C@H]1O)[C@H]3O)C2=O [Ex. 24, N-(Benzyl) pradimicin A] | > 50 | > 50 | > 50 | 12.5 (≈ 13.4 µM) |  | > 50 | 1.6 (≈ 1.72 µM) |  |  |  | 3.2 (≈ 3.44 µM) | 3.2 (≈ 3.44 µM) |  |  | MIC (M. gypseum A26835): 50 mg/L (≈ 53.7 µM); MIC (M. canis A26834): 25 mg/L (≈ 26.9 µM)
3 | COc1cc(O)c2c(c1)C(=O)c1c(cc3c(c1O)-c1c(cc(C)c(C(=O)N[C@H](C)C(=O)O)c1O)[C@H](O[C@@H]1O[C@H](C)[C@H](N(C)CC(N)=O)[C@H](O)[C@H]1O)[C@H]3O)C2=O [Ex. 5, N-(carbamoylmethyl) pradimicin B] | 0.8 (≈ 1.04 µM) | 3.2 (≈ 4.18 µM) | 3.2 (≈ 4.18 µM) | 0.8 (≈ 1.04 µM) | 0.8 (≈ 1.04 µM) | 3.2 (≈ 4.18 µM) | 0.8 (≈ 1.04 µM) | 1.6 (≈ 2.09 µM) | 3.2 (≈ 4.18 µM) | 0.8 (≈ 1.04 µM) | 1.6 (≈ 2.09 µM) | 1.6 (≈ 2.09 µM) | >50** mg/kg | > 4 | 
4 | COc1cc(O)c2c(c1)C(=O)c1c(cc3c(c1O)-c1c(cc(C)c(C(=O)N[C@H](C)C(=O)O)c1O)[C@H](O[C@@H]1O[C@H](C)[C@H](N(C)C(=O)CN)[C@H](O)[C@H]1O)[C@H]3O)C2=O [Ex. 14, N-(glycyl) pradimicin B formate salt] | 3.2 | 3.2 | 3.2 | 1.6 | 3.2 | 3.2 | 1.6 |  |  | 1.6 |  |  |  |  | MIC (M. gypseum A22810): 3.2 mg/L; MIC (T. rubrum A24195): 1.6 mg/L; MIC (T. mentagrophytes A22838): 1.6 mg/L
5 | C=CCN(C)[C@@H]1[C@H](O)[C@@H](O)[C@H](O[C@H]2c3cc(C)c(C(=O)N[C@H](C)C(=O)O)c(O)c3-c3c(cc4c(c3O)C(=O)c3cc(OC)cc(O)c3C4=O)[C@@H]2O)O[C@@H]1C [Ex. 21, N-(Allyl) pradimicin B] | 0.8 (≈ 1.07 µM) | 3.2 (≈ 4.27 µM) | 6.3 (≈ 8.41 µM) | 0.8 (≈ 1.07 µM) | 1.6 (≈ 2.14 µM) | 6.3 (≈ 8.41 µM) | 1.6 (≈ 2.14 µM) | 3.2 (≈ 4.27 µM) | 12.5 (≈ 16.7 µM) | 0.8 (≈ 1.07 µM) | 3.2 (≈ 4.27 µM) | 3.2 (≈ 4.27 µM) |  | 2 (≈ 2670 µM) | PD₅₀ (Candida albicans A9540 [12]; mouse, in vivo): >50 mg/kg
